Read-outs that look alike come from different tables or passages of the source.
Experiments:
[1] = test system: T-cell activation in human whole blood; experiment: Example 5: IFN-g, IL-2 and IL-17A release in thapsigargin stimulated human whole blood; format: cell-based; conditions: 24 Hr, at least 2 replicate experiments
Excerpt: Human whole blood was used to assess the potency of Kv1.3 inhibitor peptides on T-cell activation as determined by release of the cytokines IFN-g, IL-2 and IL-17A after stimulation with thapsigargin. Addition of thapsigargin activates a signalling cascade resulting in T cell proliferation and cytokine production, in which the Kv1.3 ion channel plays a key role. Activity of Kv1.3 inhibitors in human primary T cells can thus be measured in this experimental system.
Human whole blood was obtained from healthy blood donors and was collected after informed consent using Sodium Heparin blood sampling tubes (Becton, Dickinson and Company (BD), Cat #367876). Test peptides were diluted to 4× final testing concentrations in assay buffer (Dulbecco's Modified Eagle's medium (DMEM) with high glucose and GlutaMAX (3.97 mM L-alanine-L-glutamine) (Gibco Cat #61965026) supplemented with 25 mM HEPES buffer, 1 mM Sodium Pyruvate, 100 units/ml Penicillin, 100 μg/ml Streptomycin and 0.05% Casein from bovine milk (Sigma-Aldrich Cat #C4765)) and 25 μl was added to wells of a 96 well tissue culture plate. Then 50 μl human whole blood was added and incubated for minimum 5 minutes at room temperature to allow compound binding. Then 25 μl of 40 μM thapsigargin diluted in assay buffer was added to all wells of the assay plates to activate the cells, followed by incubation for 24 Hr at 37° C./5% CO2 in a humidified box. The assay plates were centrifuged for 10 min at 300 g at 4° C. and the supernatants were transferred to new plates. The concentrations of IFN-g, IL-2 and IL-17A released to the supernatants were measured using a tri-plex human cytokine detection kit (MSD Human U-Plex IFN-g, IL-2 and IL-17A kit; Meso Scale Discovery Cat #K15067L-2) and all three cytokines were measured using a MSD MESO QuickPlex SQ 120 instrument as described by the manufacturer (Meso Scale Discovery, Rockville, Maryland, USA).
To determine the potency of inhibition for the compounds, the cytokine concentration data were fitted using a three parameter logistic dose response model based on the formula Y=Bottom+(Top−Bottom)/(1+IC50/X), where Y is measured cytokine concentrations, X is compound concentrations and Top, bottom and IC50 are parameters fitted using the software Graphpad Prism version 5.04. The IC50 value calculated from the concentration response curve represents the compound concentration that gives an inhibition response halfway between the basal (Bottom) response and the maximal (Top) response.
All values are derived from at least 2 replicate experiments. All of the tested Kv1.3 blockers were able to inhibit cytokine production from human T cells present in human whole blood that was stimulated with thapsigargin.

[2] = target: T1, Kv1.1 (Homo sapiens, UniProt Q09470); experiment: Patch clamp assay (QPatch), Kv1.1; format: cell-based; conditions: for IC50: QPatch, CHO cells stably expressing human Kv1.1, read-out: Potency IC50, Kv1.1; for Selectivity Kv1.1/Kv1.3: ratio of IC50 Kv1.1/Kv1.3
T1 construct: expressed in transfected cells
T1 sequence (Q09470 whole entry): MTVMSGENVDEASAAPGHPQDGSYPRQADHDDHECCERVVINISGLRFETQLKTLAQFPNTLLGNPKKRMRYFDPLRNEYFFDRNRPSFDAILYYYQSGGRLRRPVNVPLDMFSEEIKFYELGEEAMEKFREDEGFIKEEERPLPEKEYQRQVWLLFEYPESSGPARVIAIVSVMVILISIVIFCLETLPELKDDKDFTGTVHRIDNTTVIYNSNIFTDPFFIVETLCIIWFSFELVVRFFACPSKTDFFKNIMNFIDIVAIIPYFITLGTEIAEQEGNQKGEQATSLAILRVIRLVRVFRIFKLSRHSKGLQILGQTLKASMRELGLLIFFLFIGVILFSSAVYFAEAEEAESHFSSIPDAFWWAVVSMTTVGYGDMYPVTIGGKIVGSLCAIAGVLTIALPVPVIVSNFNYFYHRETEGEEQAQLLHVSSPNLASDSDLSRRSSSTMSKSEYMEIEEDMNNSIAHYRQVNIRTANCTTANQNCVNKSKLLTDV
Method: (§1) Selectivity of Kv1.3 inhibitor peptides for Kv1.3 over other potassium ion channels (Kv1.1, Kv1.2 and Kv1.6) was determined using patch clamp assay.
(§2) Chinese Hamster Ovary (CHO) cell lines stably expressing exogenous human α-subunits of each potassium ion channel were grown and passaged under standard culture conditions.
(§3) The automated, chip-based planar patch clamp device QPatch® was used to quantitate the ionic currents. All recordings were made in the conventional whole-cell configuration after establishment of gigaohm seals. […] During experiments 0.1% (v/v) BSA was included as a vehicle in all external recording solutions. Currents were elicited from a holding potential of −80 mV using a voltage protocol, which shifted the voltage to 30 mV for 500 ms every 15 s.
(§4) Concentration-response relationships were established by cumulatively applying seven escalating concentrations of test sample to an individual cell with a recording period of 2 min per compound application.
(§5) The efficacy was determined as the mean charge for the last three sweeps at the end of each concentration application period from the cursor positions. The percent inhibition for each test dose application period was calculated as the reduction in mean cursor value (charge) relative to the cursor value measured at the end of the vehicle period and used to calculate the IC50 from the concentration response curve.

[3] = test system: T-cell activation in rat whole blood; experiment: Example 4: IL-17A release in thapsigargin stimulated rat whole blood; format: cell-based, rat (Lewis or Sprague-Dawley); conditions: 24 Hr, at least 2 replicates, unit inferred, read-out: IC50 (inhibition of IL-17A release)
Summary of the method: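 Heparinised whole blood from naïve Lewis or Sprague-Dawley rats preincubated ≥5 min at RT with peptide, then stimulated with thapsigargin (40 μM stock added as one quarter of well volume) for 24 h at 37 °C. Supernatant IL-17A measured by ELISA; IC50 from curves normalised to stimulated and unstimulated controls, ≥2 replicates.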

[4] = target: T2, Kv1.2 (Homo sapiens, UniProt P16389); experiment: Patch clamp assay (QPatch), Kv1.2; format: cell-based; conditions: for IC50: QPatch, CHO cells stably expressing human Kv1.2, read-out: Potency IC50, Kv1.2; for Selectivity Kv1.2/Kv1.3: ratio of IC50 Kv1.2/Kv1.3
T2 construct: expressed in transfected cells
T2 sequence (P16389 whole entry): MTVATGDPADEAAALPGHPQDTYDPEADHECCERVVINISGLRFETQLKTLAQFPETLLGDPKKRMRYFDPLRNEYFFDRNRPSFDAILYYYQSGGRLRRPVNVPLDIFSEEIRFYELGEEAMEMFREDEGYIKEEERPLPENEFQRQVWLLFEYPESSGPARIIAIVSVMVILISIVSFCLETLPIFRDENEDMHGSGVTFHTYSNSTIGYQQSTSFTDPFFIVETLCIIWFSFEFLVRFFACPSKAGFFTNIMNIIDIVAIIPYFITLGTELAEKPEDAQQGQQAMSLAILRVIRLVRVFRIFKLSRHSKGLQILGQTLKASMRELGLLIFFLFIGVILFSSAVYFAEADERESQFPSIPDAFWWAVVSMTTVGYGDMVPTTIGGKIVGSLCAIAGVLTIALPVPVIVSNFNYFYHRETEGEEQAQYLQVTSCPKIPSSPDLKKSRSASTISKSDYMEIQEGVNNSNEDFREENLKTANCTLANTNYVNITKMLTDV

[5] = target: T3, Kv1.6 (Homo sapiens, UniProt P17658); experiment: Patch clamp assay (QPatch), Kv1.6; format: cell-based; conditions: for IC50: QPatch, CHO cells stably expressing human Kv1.6, read-out: Potency IC50, Kv1.6; for Selectivity Kv1.6/Kv1.3: ratio of IC50 Kv1.6/Kv1.3
T3 construct: expressed in transfected cells
T3 sequence (P17658 whole entry): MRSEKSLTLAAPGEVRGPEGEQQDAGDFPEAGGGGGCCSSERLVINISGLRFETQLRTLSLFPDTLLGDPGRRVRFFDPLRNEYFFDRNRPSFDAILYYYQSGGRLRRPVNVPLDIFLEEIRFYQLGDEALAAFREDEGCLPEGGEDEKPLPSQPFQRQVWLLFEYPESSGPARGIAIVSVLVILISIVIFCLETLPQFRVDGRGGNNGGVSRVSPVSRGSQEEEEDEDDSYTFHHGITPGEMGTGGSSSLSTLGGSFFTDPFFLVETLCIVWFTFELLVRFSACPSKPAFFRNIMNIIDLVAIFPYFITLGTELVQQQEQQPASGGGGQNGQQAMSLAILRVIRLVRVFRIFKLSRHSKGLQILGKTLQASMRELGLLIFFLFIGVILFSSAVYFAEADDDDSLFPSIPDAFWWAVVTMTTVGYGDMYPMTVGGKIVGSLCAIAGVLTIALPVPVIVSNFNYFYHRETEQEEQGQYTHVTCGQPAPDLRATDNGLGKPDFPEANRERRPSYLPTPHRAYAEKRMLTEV

[6] = target: T4, Kv1.3 (Homo sapiens, UniProt P22001); experiment: Patch clamp assay (QPatch), Kv1.3; format: cell-based; conditions: CHO cells stably expressing human Kv1.3, read-out: Potency IC50, Kv1.3
T4 construct: expressed in transfected cells
T4 sequence (P22001 whole entry): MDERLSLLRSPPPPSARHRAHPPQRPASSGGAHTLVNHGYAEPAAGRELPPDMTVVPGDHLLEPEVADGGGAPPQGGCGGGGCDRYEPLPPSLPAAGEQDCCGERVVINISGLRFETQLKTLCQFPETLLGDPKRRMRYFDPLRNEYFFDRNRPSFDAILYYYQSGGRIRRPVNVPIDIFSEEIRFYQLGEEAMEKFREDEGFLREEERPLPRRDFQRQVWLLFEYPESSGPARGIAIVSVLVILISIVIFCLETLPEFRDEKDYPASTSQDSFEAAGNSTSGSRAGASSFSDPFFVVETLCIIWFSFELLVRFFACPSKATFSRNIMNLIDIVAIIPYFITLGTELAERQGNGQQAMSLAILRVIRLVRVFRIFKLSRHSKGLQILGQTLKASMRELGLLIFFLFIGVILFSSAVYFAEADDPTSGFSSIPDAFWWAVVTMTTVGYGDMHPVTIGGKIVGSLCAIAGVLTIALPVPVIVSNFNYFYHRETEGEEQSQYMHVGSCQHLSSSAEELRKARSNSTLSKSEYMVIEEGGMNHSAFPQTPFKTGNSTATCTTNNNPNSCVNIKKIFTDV
Method: as §1, §2, §3, §4, §5

[7] = test system: human peripheral blood mononuclear cells (PBMCs); experiment: Example 3a: IL-2 release from anti-CD3 stimulated human PBMCs; format: cell-based; conditions: for comparison of IC50 (IL-2 secretion) with ShK186 / Moka1: in words; for IC50: human PBMCs, 5 donors, anti-CD3 0.5 μg/mL, geometric mean, at least 4 replicates, read-out: anti-CD3 PBMC/ IL-2 IC50
Method: Human peripheral blood mononuclear cells (PBMCs) were used to assess the effects of Kv1.3 inhibitor peptides on T-cell activation as determined by IL-2 (cytokine) release after stimulation with anti-CD3.
Human PBMCs were obtained from Precision for Medicine (Frederick, MD). Cells from 5 donors were used. Plate-bound anti-CD3 was used to stimulate bulk T cells in the PBMC preparations. Briefly, 96-well plates were coated with anti-CD3 antibody for 2 hrs at 37° C., using 50 μL of a 0.5 μg/mL anti-CD3 solution diluted in 1×PBS. Thereafter the plates were washed twice.
Cyclosporin A (1 ug/ml) and Vm24 peptide (100 nM) were used as positive controls. Finally, 1×10^5 PBMCs were added to each well in a volume of 100 μL, giving a final volume of 200 μL per well. The plates were incubated for 20-24 hours in a 37° C./5% CO2 incubator. After centrifugation of the plates, 25 μl supernatant was transferred to IL-2 detection plates (MSD Human IL-2 Tissue Culture Kit, cat #K151AHB-2) and IL-2 was measures as described by the manufacturer (Meso Scale Discovery, Rockville, Maryland, USA).
All values derive from at least 4 replicates.

[8] = Example 6: Pharmacokinetic characterisation after s.c. administration; format: in vivo, rat (Sprague Dawley or Wistar); conditions: rat, 70 nmol/kg; for AUCINF / Cmax: plasma; for T1/2: plasma terminal elimination half-life
Method: Sprague Dawley or Wistar rats (males with a body weight of approximately 250-350 g) were given a single subcutaneous (s.c.) injection of each peptide to be tested.
Following s.c. administration of the selected peptides (dose 70 nmol/kg, dosing volume either 2 or 5 mL/kg), blood samples were drawn at 15 min, 30 min, 45 min, 60 min, 90 min, 2 h, 3 h, 4 h post-dose. At each sampling time point, samples from the rats were drawn by sublingual bleeding or by tail cut. After last sampling the rats were sacrificed by O2/CO2 anaesthesia. The dosing vehicle was 10 mM phosphate, 0.8% NaCl, 0.05% Polysorbate 20 (pH 6.0).
Plasma samples were analyzed after solid phase extraction (SPE) by liquid chromatography mass spectrometry (LC-MS/MS). Mean plasma concentrations were used for calculation of the pharmacokinetic parameters using the non-compartmental approach in Phoenix WinNonlin 6.4 or a later version. […]. AUCinf is the area under the plasma concentration−time curve extrapolated to infinity (AUCinf=AUClast+Clast/λz, where Clast is the last observed plasma concentration). Cmax is the maximum observed concentration, occurring at Tmax.

[9] = test system: human peripheral blood mononuclear cells (PBMCs); experiment: Example 3b: IL-2 release from anti-CD3 stimulated human PBMCs; format: cell-based; conditions: 5 donors, anti-CD3 1 μg/ml, geometric mean, at least 6 replicates
Method: Human peripheral blood mononuclear cells (PBMCs) were used to assess the effects of Kv1.3 inhibitor peptides on T-cell activation as determined by IL-2 release after stimulation with anti-CD3.
Human PBMCs were obtained from Precision for Medicine (Frederick, MD). Cells from 5 donors were used. Plate-bound anti-CD3 was used to stimulate bulk T cells in the PBMC preparations. Briefly, 96-well plates were coated with anti-CD3 antibody for app. 16 hours at 5° C., using 50 μl of a 1 μg/ml anti-CD3 solution diluted in PBS. Thereafter the plates were washed twice.
Peptides were subsequently diluted in medium (RPMI 1640 with Glutamax-I containing, 10% v/v Fetal Bovine Serum, 1% v/v penicillin-streptomycin Solution) and added in a volume of 50 μl. The peptides indicated in Table 4b were used at concentrations ranging from 0.3 pM to 1000 nM (half log dilutions, starting concentrations varying). Cyclosporin A (1 μg/ml) and Vm24 peptide (100 nM) were used as positive controls.
Finally, 50,000 PBMCs in the same medium were added to each well in a volume of 50 μl, giving a final volume of 100 μl per well. The plates were incubated for 20-24 hours in a 370C/5% CO2 incubator. After centrifugation of the plates, 25 μl supernatant was transferred to IL-2 detection plates (MSD Human IL-2 Tissue Culture Kit, cat #K151AHB-2) and IL-2 was measures as described by the manufacturer (Meso Scale Discovery, Rockville, Maryland, USA).
All values derive from at least 6 replicates.

[10] = read-out: anti-CD3 PBMC/IL-2 IC50

Row | Substance | IC50 ([1]; read-out: Average IC50, IFN-g) [nM] | IC50 ([1]; read-out: Average IC50, IL-2) [nM] | IC50 ([1]; read-out: Average IC50, IL-17A) [nM] | IC50 [2] [nM] | Selectivity Kv1.1/Kv1.3 [2] | IC50 [3] [nM] | IC50 [4] [nM] | Selectivity Kv1.2/Kv1.3 [4] | IC50 [5] [nM] | Selectivity Kv1.6/Kv1.3 [5] | IC50 [6] [nM] | comparison of IC50 (IL-2 secretion) with ShK186 / Moka1 [7] | AUCINF [8] [µM·h] | Cmax [8] [nM] | T1/2 [8] [min] | IC50 [7] [nM] | IC50 [9, 10] [nM] | IC50 ([9]; listed as ShK186, read-out: anti-CD3 PBMC/IL-2 IC50) [nM]
1 | H-C(1)SASVEC(2)KQKC(3)LKAIGSIFGKC(1)[Nle]NKKC(2)KC(3)YPR-NH2 [Peptide 108] | 0.081 | 0.12 | 0.23 | > 3000 | >7000 | 1.6 | > 3000 | >7000 | > 3000 | >7000 | 0.43 | – | – | – | – | – | – | –
2 | H-INVKCSLPQQCIKPCKDAGMRFGKCMNKKCRCYS-OH [Moka1, reference compound] | – | – | – | – | >300 | – | – | 31 | – | >300 | – | less potent in inhibiting IL-2 secretion | – | – | – | – | – | –
3 | H-NMDMRC(1)SASVEC(2)KQKC(3)LAAIGSIFGKC(1)MNKKC(2)KC(3)YPR-NH2 [Peptide 53] | 0.11 | 0.083 | 0.26 | > 3000 | >27500 | 0.69 | 88 | 803 | > 3000 | >27500 | 0.11 | – | 0.0485 | 31.2 | 53.4 | – | – | –
4 | H-NMDMRC(1)SASVEC(2)KQKC(3)LDAIGSIFGKC(1)MNKKC(2)KC(3)YPR-NH2 [Peptide 21] | – | – | – | > 3000 | >14300 | 1.2 | 99 | 471 | 2530 | 12045 | 0.21 | – | – | – | – | 0.1 | – | –
5 | H-NMDMRC(1)SASVEC(2)KQKC(3)LKAIGSIFGKC(1)MNKKC(2)KC(3)YPR-OH [Peptide 3] | 0.058 | 0.022 | 0.044 | > 3000 | >11300 | 1 | 409 | 1540 | > 3000 | >11300 | 0.27 | – | 0.0839 | 36.9 | 59.4 | – | 0.06 | –
6 | H-NMDMRC(1)SASVEC(2)KQKC(3)LKAIGSIFGKC(1)MNKKC(2)KC(3)YPRRRTA-NH2 [Peptide 24] | – | – | – | 626 | 4280 | 0.57 | 28 | 191 | 215 | 1472 | 0.15 | – | – | – | – | – | 0.06 | –
7 | H-NMDMRC(1)SASVEC(2)KQKC(3)LKAIGSIFGKC(1)[Nle]NKKC(2)KC(3)YPR-NH2 [Peptide 17] | – | – | – | > 3000 | >12600 | – | 133 | 561 | 2460 | 10360 | 0.24 | – | – | – | – | 0.05 | – | –
8 | H-NMDMRC(1)SASVEC(2)KQKC(3)LKAIGSRFGKC(1)MNKKC(2)KC(3)YPR-NH2 [Peptide 36] | – | – | – | > 3000 | >15000 | 2.5 | 18 | 88 | 192 | 963 | 0.2 | – | – | – | – | 0.1 | – | –
9 | H-NMDMRC(1)SASVEC(2)KVKC(3)LKAIGSIFGKC(1)MNKKC(2)KC(3)YPR-NH2 [Peptide 18] | – | – | – | > 3000 | >7200 | 0.88 | 66 | 159 | 912 | 2182 | 0.42 | – | – | – | – | 0.4 | – | –
10 | H-N[Nle]D[Nle]RC(1)SASVEC(2)KQSC(3)LKAIGSIFGKC(1)[Nle]NKKC(2)KC(3)YPR-NH2 [Peptide 49] | – | – | – | > 3000 | >8200 | 0.63 | > 3000 | >8200 | > 3000 | >8200 | 0.37 | – | – | – | – | – | 0.07 | –
11 | H-P[Nle]D[Nle]RC(1)SASVEC(2)KQKC(3)LKAIGSIFGKC(1)[Nle]NKKC(2)KC(3)YPR-NH2 [Peptide 42] | 0.046 | 0.03 | 0.058 | > 3000 | >17100 | 0.98 | 939 | 5362 | > 3000 | >17100 | 0.18 | – | – | – | – | – | 0.03 | –
12 | H-P[Nle]E[Nle]RC(1)SASVEC(2)AQKC(3)LAAIGSIFGKC(1)[Nle]NKKC(2)KC(3)YPR-OH [Peptide 107] | – | – | – | > 3000 | >5500 | 1.2 | > 3000 | 5500 | > 3000 | >5500 | 0.55 | – | 0.1766 | 68.4 | 81.6 | – | – | –
13 | H-QMDMRC(1)SASVEC(2)KQKC(3)LKAIGSIFGKC(1)MNKKC(2)KC(3)YPR-OH [Peptide 1] | – | – | – | > 3000 | >7900 | 0.17 | 518 | 1364 | > 3000 | >7900 | 0.38 | – | – | – | – | – | 0.09 | –
14 | H-[phosphotyrosyl][8-Amino-3,6-dioxaoctanoyl]RSCIDTIPKSRCTAFQCKHSMKYRLSFCRKTCGTC-NH2 [ShK-186, reference compound] | – | – | – | 0.31 | 4.9 | – | 43 | 682 | 0.45 | 7.4 | 0.095 | significantly lower than Moka1 | – | – | – | 0.07 | 0.04 | 0.05

Reference: patent US20260325605A1, “INHIBITORS” (Zealand Pharma A/S, priority 2022, published 2026)
